Results reported in US6339042B1, “Herbicidal N-cyclohexadienyl heteroaryloxyacetamides” (American Cyanamid Co., priority 1999, dated 2002).

Key:
Conditions in all cases: three weeks after treatment
[1] = test system: Echinochloa crus-galli; assay: Post-emergence herbicidal evaluation, ECHCG
Description: (§2) The compounds of the invention are tested for pre- and post-emergence herbicidal activity.
(§3) Each pot is examined three weeks after treatment and phytotoxicity is assessed according to the rating system set forth below.
(§4) These acetone solutions are diluted with water and the resulting formulations applied at dosage levels equivalent of about 0.4 to 0.1 kg per hectare of test compound per pot. After spraying the plants are placed on greenhouse benches and are cared for in the usual manner, commensurate with conventional greenhouse practices.

[2] = test system: Setaria viridis; assay: Post-emergence herbicidal evaluation, SETVI
Description: as §2, §3, §4

[3] = test system: Amaranthus tuberculatus; assay: Pre-emergence herbicidal evaluation, AMATA; format: in vivo
Text: (§1) The treated pots are then placed on greenhouse benches, watered and cared for in accordance with conventional greenhouse procedures.

[4] = test system: Glycine max; assay: Pre-emergence herbicidal evaluation, GLXMA; format: in vivo
Text: as §1

[5] = test system: Zea mays; assay: Post-emergence herbicidal evaluation, ZEAMX
[6] = test system: Setaria viridis; assay: Pre-emergence herbicidal evaluation, SETVI; format: in vivo
Text: as §1

[7] = test system: Alopecurus myosuroides; assay: Post-emergence herbicidal evaluation, ALOMY
[8] = test system: Glycine max; assay: Post-emergence herbicidal evaluation, GLXMA
[9] = test system: Zea mays; assay: Pre-emergence herbicidal evaluation, ZEAMX; format: in vivo
Text: as §1

[10] = test system: Amaranthus tuberculatus; assay: Post-emergence herbicidal evaluation, AMATA; format: in vivo
[11] = test system: Triticum aestivum; assay: Pre-emergence herbicidal evaluation, TRZAW; format: in vivo
Text: as §1

[12] = test system: Lolium perenne; assay: Post-emergence herbicidal evaluation, LOLPE
[13] = test system: Hordeum vulgare; assay: Pre-emergence herbicidal evaluation, HORVW; format: in vivo
Text: as §1

[14] = test system: Oryza sativum; assay: Post-emergence herbicidal evaluation, ORYSA
[15] = test system: Hordeum vulgare; assay: Post-emergence herbicidal evaluation, HORVW
[16] = test system: Triticum aestivum; assay: Post-emergence herbicidal evaluation, TRZAW
[17] = test system: Apera spica venti; assay: Pre-emergence herbicidal evaluation, APESV; format: in vivo
Text: as §1

[18] = test system: Echinochloa crus-galli; assay: Pre-emergence herbicidal evaluation, ECHCG; format: in vivo
Text: as §1

[19] = test system: Lolium perenne; assay: Pre-emergence herbicidal evaluation, LOLPE; format: in vivo
Text: as §1

[20] = test system: Oryza sativum; assay: Pre-emergence herbicidal evaluation, ORYSA; format: in vivo
Text: as §1

[21] = test system: Apera spica venti; assay: Post-emergence herbicidal evaluation, APESV
[22] = test system: Alopecurus myosuroides; assay: Pre-emergence herbicidal evaluation, ALOMY; format: in vivo
Text: as §1

[23] = test system: Galium aparine; assay: Post-emergence herbicidal evaluation, GALAP
Description: as §2, §3, §4

CCc1nnc(OCC(=O)N(C2=CC(C)(C)CC(C)=C2)C(C)C)s1 [Example 11]
phytotoxicity rating ECHCG ([1]; 0.100 kg/ha): 0 (0 - No effect)
phytotoxicity rating ECHCG ([1]; 0.200 kg/ha): 2 (2 - Slight effect)
phytotoxicity rating ECHCG ([1]; 0.400 kg/ha): 3 (3 - Moderate effect)
phytotoxicity rating SETVI ([2]; 0.100 kg/ha): 0 (0 - No effect)
phytotoxicity rating SETVI ([2]; 0.200 kg/ha): 0 (0 - No effect)
phytotoxicity rating SETVI ([2]; 0.400 kg/ha): 0 (0 - No effect)
phytotoxicity rating AMATA ([3]; 0.100 kg/ha): 0 (0 - No effect)
phytotoxicity rating AMATA ([3]; 0.200 kg/ha): 0 (0 - No effect)
phytotoxicity rating AMATA ([3]; 0.400 kg/ha): 0 (0 - No effect)
phytotoxicity rating AMATA ([3]; 0.800 kg/ha): 4 (4 - Injury)
phytotoxicity rating GLXMA ([4]; 0.100 kg/ha): 0 (0 - No effect)
phytotoxicity rating GLXMA ([4]; 0.200 kg/ha): 0 (0 - No effect)
phytotoxicity rating GLXMA ([4]; 0.400 kg/ha): 0 (0 - No effect)
phytotoxicity rating GLXMA ([4]; 0.800 kg/ha): 0 (0 - No effect)
phytotoxicity rating ZEAMX ([5]; 0.100 kg/ha): 0 (0 - No effect)
phytotoxicity rating ZEAMX ([5]; 0.200 kg/ha): 1 (1 - Trace effect)
phytotoxicity rating ZEAMX ([5]; 0.400 kg/ha): 4 (4 - Injury)
phytotoxicity rating SETVI ([6]; 0.100 kg/ha): 6 (6 - Herbicidal effect)
phytotoxicity rating SETVI ([6]; 0.200 kg/ha): 8 (8 - Approaching complete kill)
phytotoxicity rating SETVI ([6]; 0.400 kg/ha): 8 (8 - Approaching complete kill)
phytotoxicity rating SETVI ([6]; 0.800 kg/ha): 9 (9 - Complete kill)
phytotoxicity rating ALOMY ([7]; 0.100 kg/ha): 1 (1 - Trace effect)
phytotoxicity rating ALOMY ([7]; 0.200 kg/ha): 7 (7 - Good herbicidal effect)
phytotoxicity rating ALOMY ([7]; 0.400 kg/ha): 8 (8 - Approaching complete kill)
phytotoxicity rating GLXMA ([8]; 0.100 kg/ha): 3 (3 - Moderate effect)
phytotoxicity rating GLXMA ([8]; 0.200 kg/ha): 5 (5 - Definite injury)
phytotoxicity rating GLXMA ([8]; 0.400 kg/ha): 5 (5 - Definite injury)
phytotoxicity rating ZEAMX ([9]; 0.100 kg/ha): 0 (0 - No effect)
phytotoxicity rating ZEAMX ([9]; 0.200 kg/ha): 0 (0 - No effect)
phytotoxicity rating ZEAMX ([9]; 0.400 kg/ha): 0 (0 - No effect)
phytotoxicity rating ZEAMX ([9]; 0.800 kg/ha): 7 (7 - Good herbicidal effect)
phytotoxicity rating AMATA ([10]; 0.100 kg/ha): 0 (0 - No effect)
phytotoxicity rating AMATA ([10]; 0.200 kg/ha): 3 (3 - Moderate effect)
phytotoxicity rating AMATA ([10]; 0.400 kg/ha): 4 (4 - Injury)
phytotoxicity rating TRZAW ([11]; 0.100 kg/ha): 0 (0 - No effect)
phytotoxicity rating TRZAW ([11]; 0.200 kg/ha): 0 (0 - No effect)
phytotoxicity rating TRZAW ([11]; 0.400 kg/ha): 2 (2 - Slight effect)
phytotoxicity rating TRZAW ([11]; 0.800 kg/ha): 3 (3 - Moderate effect)
phytotoxicity rating LOLPE ([12]; 0.100 kg/ha): 3 (3 - Moderate effect)
phytotoxicity rating LOLPE ([12]; 0.200 kg/ha): 5 (5 - Definite injury)
phytotoxicity rating LOLPE ([12]; 0.400 kg/ha): 8 (8 - Approaching complete kill)
phytotoxicity rating HORVW ([13]; 0.100 kg/ha): 0 (0 - No effect)
phytotoxicity rating HORVW ([13]; 0.200 kg/ha): 0 (0 - No effect)
phytotoxicity rating HORVW ([13]; 0.400 kg/ha): 1 (1 - Trace effect)
phytotoxicity rating HORVW ([13]; 0.800 kg/ha): 4 (4 - Injury)
phytotoxicity rating ORYSA ([14]; 0.100 kg/ha): 0 (0 - No effect)
phytotoxicity rating ORYSA ([14]; 0.200 kg/ha): 0 (0 - No effect)
phytotoxicity rating ORYSA ([14]; 0.400 kg/ha): 2 (2 - Slight effect)
phytotoxicity rating HORVW ([15]; 0.100 kg/ha): 0 (0 - No effect)
phytotoxicity rating HORVW ([15]; 0.200 kg/ha): 0 (0 - No effect)
phytotoxicity rating HORVW ([15]; 0.400 kg/ha): 1 (1 - Trace effect)
phytotoxicity rating TRZAW ([16]; 0.100 kg/ha): 0 (0 - No effect)
phytotoxicity rating TRZAW ([16]; 0.200 kg/ha): 0 (0 - No effect)
phytotoxicity rating TRZAW ([16]; 0.400 kg/ha): 1 (1 - Trace effect)
phytotoxicity rating APESV ([17]; 0.100 kg/ha): 0 (0 - No effect)
phytotoxicity rating APESV ([17]; 0.200 kg/ha): 0 (0 - No effect)
phytotoxicity rating APESV ([17]; 0.400 kg/ha): 5 (5 - Definite injury)
phytotoxicity rating APESV ([17]; 0.800 kg/ha): 5 (5 - Definite injury)
phytotoxicity rating ECHCG ([18]; 0.100 kg/ha): 7 (7 - Good herbicidal effect)
phytotoxicity rating ECHCG ([18]; 0.200 kg/ha): 7 (7 - Good herbicidal effect)
phytotoxicity rating ECHCG ([18]; 0.400 kg/ha): 9 (9 - Complete kill)
phytotoxicity rating ECHCG ([18]; 0.800 kg/ha): 9 (9 - Complete kill)
phytotoxicity rating LOLPE ([19]; 0.100 kg/ha): 4 (4 - Injury)
phytotoxicity rating LOLPE ([19]; 0.200 kg/ha): 5 (5 - Definite injury)
phytotoxicity rating LOLPE ([19]; 0.400 kg/ha): 8 (8 - Approaching complete kill)
phytotoxicity rating LOLPE ([19]; 0.800 kg/ha): 9 (9 - Complete kill)
phytotoxicity rating ORYSA ([20]; 0.100 kg/ha): 0 (0 - No effect)
phytotoxicity rating ORYSA ([20]; 0.200 kg/ha): 1 (1 - Trace effect)
phytotoxicity rating ORYSA ([20]; 0.400 kg/ha): 4 (4 - Injury)
phytotoxicity rating ORYSA ([20]; 0.800 kg/ha): 6 (6 - Herbicidal effect)
phytotoxicity rating APESV ([21]; 0.100 kg/ha): 0 (0 - No effect)
phytotoxicity rating APESV ([21]; 0.200 kg/ha): 7 (7 - Good herbicidal effect)
phytotoxicity rating APESV ([21]; 0.400 kg/ha): 5 (5 - Definite injury)
phytotoxicity rating ALOMY ([22]; 0.100 kg/ha): 7 (7 - Good herbicidal effect)
phytotoxicity rating ALOMY ([22]; 0.200 kg/ha): 8 (8 - Approaching complete kill)
phytotoxicity rating ALOMY ([22]; 0.400 kg/ha): 8 (8 - Approaching complete kill)
phytotoxicity rating ALOMY ([22]; 0.800 kg/ha): 9 (9 - Complete kill)
phytotoxicity rating GALAP ([23]; 0.100 kg/ha): 0 (0 - No effect)
phytotoxicity rating GALAP ([23]; 0.200 kg/ha): 0 (0 - No effect)
phytotoxicity rating GALAP ([23]; 0.400 kg/ha): 0 (0 - No effect)
